These results are taken from patent US11833128B2, “Ketone carbonyl-containing hydrophobic antitumor drug and conjugate thereof as well as nano preparation containing conjugate, preparation method therefor, and application thereof” (Jiangsu Jibeier Pharmaceutical Co. Ltd., priority 2018, dated 2023).

The test system of data set [1] is human lung cancer A549 xenograft. Put plainly: Tumor inhibitory effect of DTX-AI in nude mice bearing human lung cancer A549 xenograft.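 As to all read-outs here: mice implanted subcutaneously with A549 tumor fragments, grouped 14 days later at mean tumor volume near 210–250 mm^3, grouping set as Day 0, animals sacrificed on Day 43.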 The following applies: iv x 4 (qw); for Animal body weight (g) (After tumor removal): Day 43; for Tumor inhibition rate %: Day 43 (21st day from the last administration). (In general: In xenograft studies the graft and the host belong to different species.)
Excerpt: A well-grown A549 lung cancer solid tumor was taken and cut into uniform small masses having a size of about 3 mm under sterile conditions. Each mouse was inoculated subcutaneously under the right armpit with one mass by using a trocar. 14 days after inoculation, the average tumor volume was about 210 to 250 mm^3. The mice were grouped according to the tumor sizes, and the average tumor volume of each group was basically the same. […] The long diameters (a) and the short diameters (b) of the tumors were measured with an electronic digital caliper twice a week. The calculation formula of tumor volume (TV) was: TV=½×a×b^2. The calculation formula of the relative tumor volume (RTV) was: RTV=Vt/V0, wherein V0 was the tumor volume measured at the time of grouping (namely, d0), and Vt was the tumor volume at each measurement. […] On Day 43 (56 days after inoculation), the animals were sacrificed and dissected, the tumors were incised and weighed, and the body weights of the animals after tumor removal were calculated.

A further data set deals with Hela tumor. Put plainly: Effects of the pH-responsive nano preparations on tumor in vivo (Hela tumor-bearing mice). The following applies: tail vein, once every seven days x3; for relative tumor inhibition rate: 30th day from the last administration. The method, then:
Hela tumor-bearing mice were divided into four groups with five mice in each group. The first, second, and third groups were the treatment groups, in which tumor treatment was carried out by respectively injecting the drug via the tail vein of each Hela tumor-bearing mouse. […] The fourth group was the blank control group.
The mice in the first, second and third groups were treated by administering drugs once every seven days for a total of three injections. Each tumor-bearing mouse in each group was labeled, and the body weight and the tumor volume thereof throughout the treatment process were recorded. The tumor volume was calculated according to the following formula: V (mm^3)=½×length (mm)×width (mm)^2.
Moreover, the relative tumor inhibition rate was also calculated and analyzed.

Regarding `CC(=O)OC12COC1CC(O)C1(C)C(=O)C(OC(=O)Nc3ccc(C(C)=O)cc3)C3=C(C)C(OC(=O)C(O)C(NC(=O)OC(C)(C)C)c4ccccc4)CC(O)(C(OC(=O)c4ccccc4)C21)C3(C)C` (stereo not shown) [DTX-AI], in data set [1] (20 mg/kg), the “RTV (Day 43)” value was found to be 6.62 ± 2.10; the “body weights of the animals after administering (FIG. 9), in words” value (“body weights of the animals” below) is “basically not affected”; the “Animal body weight (g) (After tumor removal)” value (“Animal body weight (g)” for short) came to 25.52 ± 0.99 g; the “Tumor inhibition rate %” value came out at 62.38%. Further, in data set [1] (40 mg/kg, 60 mg/kg and 80 mg/kg groups), the “tumor rebound after drug withdrawal” value was “no tumor rebound occurred”. In data set [1] (40 mg/kg), the “RTV (Day 43)” value is 0.13 ± 0.03; the “body weights of the animals” value was “slightly reduced”; the “Animal body weight (g)” value came out at 24.07 ± 1.19 g; the “Tumor inhibition rate %” value amounted to 99.28%. Moreover, in data set [1] (60 mg/kg), the “RTV (Day 43)” value is listed as 0.09 ± 0.02; the “body weights of the animals” value is recorded as “slightly reduced”; the “Animal body weight (g)” value amounted to 24.24 ± 1.43 g; the “Tumor inhibition rate %” value came to 99.50%. In data set [1] (80 mg/kg), the “RTV (Day 43)” value was 0.13 ± 0.05; the “body weights of the animals” value is “reduced”; the “Animal body weight (g)” value is listed as 20.99 ± 2.86 g; the “Tumor inhibition rate %” value is 99.27%. Moreover, the death of animals result in data set [1] (4 dose groups (20, 40, 60, 80 mg/kg)) is recorded as “No death occurred”. Further, in the data set on Hela tumor (40 mg DTX/kg), the “relative tumor volume after 21 days (after the administration was stopped) (FIG. 5)” value is recorded as “still showed a decreasing trend with time”; the “tumor sizes after the completion of the treatment (photograph, FIG. 7)” value is “significantly smaller than those of the first group and the blank control group”; the “relative tumor inhibition rate” value is 93.5%. Besides, in the data set with Hela tumor (40 mg DTX/kg, compared with blank control group), the “body weights of the mice over treatment time (FIG. 4)” value is “basically the same as those in the blank control group”.
As to `CC(=O)O[C@@]12CO[C@@H]1C[C@H](O)[C@@]1(C)C(=O)[C@H](O)C3=C(C)[C@@H](OC(=O)[C@H](O)[C@@H](NC(=O)OC(C)(C)C)c4ccccc4)C[C@@](O)([C@@H](OC(=O)c4ccccc4)[C@H]21)C3(C)C` [Docetaxel, docetaxel, reference compound], in data set [1] (20 mg/kg), the “RTV (Day 43)” value was determined as 2.73 ± 1.36; the “body weights of the animals” value is given as “reduced”; the death of animals entry is recorded as “no death”; the “Animal body weight (g)” value came out at 25.35 ± 1.15 g. In addition, the “Tumor inhibition rate %” value in data set [1] (20 mg/kg) was 84.50%. Moreover, in data set [1] (40 mg/kg), the “RTV (Day 43)” value is 0.13 ± 0.02; the “body weights of the animals” value is on record as “severely reduced”; the “Animal body weight (g)” value was 18.71 ± 2.78 g; the “Tumor inhibition rate %” value came out at 99.24%. In addition, the “death of animals (number of animals died)” value in data set [1] (40 mg/kg, died on Day 33) is given as 1 animal. Moreover, in the data set with Hela tumor (25 mg DTX/kg), the “relative tumor volume after 21 days (after the administration was stopped) (FIG. 5)” value is recorded as “continued to increase with time” and the “relative tumor inhibition rate” value came to 67.62%.
